Laboratory results as given in PubChem BioAssay AID1996.
In brackets after ≈: the same amount, converted by molar mass.

Conditions: buffer; pH 7.4; 200.0 µM

Structure (SMILES) | solubility kinetic
CC[C@@H]1C(=O)OC[C@@H]1Cc1cncn1C.Cl | > 36.7 µg/mL
O=C(NCc1ccco1)c1ccc(NS(=O)(=O)c2cccc(F)c2)cc1 | > 56.2 µg/mL
COc1ccc(/C=C(/NC(=O)c2ccccc2)C(=O)N2CCCC2)cc1 | > 52.6 µg/mL
Cc1c(C)c2ccc(OCC(=O)Nc3cccnc3)cc2oc1=O | 1.3 µg/mL (≈ 4.01 µM)
Cc1ccc(C(=O)Nc2nc(-c3ccc(F)cc3)cs2)o1 | 4.4 µg/mL (≈ 14.6 µM)
CCC(C)n1c(O)c(C=NCC2CCCO2)c(=O)[nH]c1=S (stereo not given) | 38.3 µg/mL (≈ 123 µM)
COc1ccc(N2C(=O)/C(=C/c3cccs3)C(=O)NC2=S)cc1 | 31.4 µg/mL (≈ 91.2 µM)
CC1CCN(S(=O)(=O)c2cccc3cccnc23)CC1 | 41.8 µg/mL (≈ 144 µM)
CSc1ccc(C(=O)NCC(=O)O)cc1[N+](=O)[O-] | > 40.5 µg/mL
CC(C)(C)c1ccc(OCCCn2ccnc2)cc1 | 25.5 µg/mL (≈ 98.7 µM)
O=S(=O)(NCC1COc2ccccc2O1)c1ccccc1F (stereo not given) | > 48.5 µg/mL
Cc1ccc(-c2cc[n+](Cc3ccccc3)cc2)cc1.[Cl-] | > 44.4 µg/mL
O=[N+]([O-])c1ccc(COc2cccnc2)cc1 | > 34.5 µg/mL
CN1CCC(N(C)C(=O)c2cc(S(=O)(=O)N(C)c3ccccc3)ccc2Cl)CC1.Cl | > 70.9 µg/mL
Cc1cc(C)cc(Nc2ncnc3nc[nH]c23)c1 | 7.7 µg/mL (≈ 32.2 µM)
Cc1cc(C=O)c(C)n1C1CC1 | 17.6 µg/mL (≈ 108 µM)
CC1CCC2(CC1)SCC(=O)N2c1ccc(F)cc1 (stereo not given) | 39.5 µg/mL (≈ 141 µM)
COc1ccc(Nc2nccc(-c3ccc(C#N)cc3)n2)cc1 | 0.7 µg/mL (≈ 2.32 µM)
Cc1cc(C(C)(C)C)oc1C(=O)OCC(=O)NC1CCCCC1 | 1.1 µg/mL (≈ 3.42 µM)
COc1ccc(Cl)cc1NS(=O)(=O)c1cn(C)nc1C | > 47.4 µg/mL
CCc1c(C)nc(N)nc1Cl | 24.1 µg/mL (≈ 140 µM)
Cn1c(Br)nc2c1c(=O)n(Cc1ccccc1)c(=O)n2C | 46.1 µg/mL (≈ 132 µM)

Structure (SMILES) | solubility kinetic
O=S(=O)(Nc1cccc2ccccc12)c1cccc2nonc12 | > 48.8 µg/mL
O=C(CN1CCN(c2ccccc2F)CC1)NCc1ccc(Cl)cc1 | 49.1 µg/mL (≈ 136 µM)
CCN(CC(=O)Nc1ccc(OC(F)F)cc1)C1CCCCC1 | 33.1 µg/mL (≈ 101 µM)
O=C(Nc1ccc(F)cc1)Nc1cccc(Br)c1 | 0.7 µg/mL (≈ 2.26 µM)
O=C(CSc1ccccc1)NCCc1ccccc1 | 39.4 µg/mL (≈ 145 µM)
CC(OC(=O)c1cn(C)c2ccccc12)C(=O)N1CCCC1 (stereo not given) | > 45.1 µg/mL
COc1ccc(NC(=O)CS(=O)c2ccccc2Cl)cc1 (stereo not given) | > 48.6 µg/mL
COc1ccc(/C=C/C(=O)N[C@H](C(=O)O)C(C)C)cc1 | > 41.6 µg/mL
CCC(CO)N=CC1=C(O)CC(c2ccccc2)CC1=O (stereo not given) | > 43.1 µg/mL
COc1ccccc1CCNC(=O)c1nccnc1C(=O)O | > 45.2 µg/mL
Nc1ncnc(Oc2cccc3cccnc23)c1[N+](=O)[O-] | 33.8 µg/mL (≈ 119 µM)
Cc1nc(-c2ccc([N+](=O)[O-])cc2)nc2[nH]ccc(=O)c12 | 0.9 µg/mL (≈ 3.19 µM)
c1ccc(CC2CCCCN2)cc1 (stereo not given) | 7.7 µg/mL (≈ 43.9 µM)
O=C(O)[C@H](Cc1ccccc1)Nc1ccc([N+](=O)[O-])cn1 | > 43.1 µg/mL
CC(C)(CNc1ccc(C(F)(F)F)cc1[N+](=O)[O-])N1CCOCC1 | 5.5 µg/mL (≈ 15.8 µM)
COc1ccc(NC(=O)COC(=O)c2ccc3ccccc3n2)cc1OC | 6.7 µg/mL (≈ 18.3 µM)
Cc1cc(SCC(=O)c2ccc(O)c(O)c2)nc2ccccc12 | 3.5 µg/mL (≈ 10.8 µM)
N#CC1(NC(=O)CN2C(=O)NC(Cc3c[nH]c4ccccc34)C2=O)CCCCC1 (stereo not given) | > 59 µg/mL
O=C(CN1CCCCCCC1)NC(=O)NC1CCCCC1 | 30.2 µg/mL (≈ 102 µM)
CC(=O)c1ccc(OCC(=O)NC(=O)NC2CCCCC2)cc1 | 9.3 µg/mL (≈ 29.2 µM)
CS/C(=C(/C#N)S(=O)(=O)c1ccc(Cl)cc1)N1CCOCC1 | 49.7 µg/mL (≈ 138 µM)
CCc1ccc(C(=O)COC(=O)CNC(=O)C2CCCCC2)cc1 | 18.1 µg/mL (≈ 54.6 µM)

Structure (SMILES) | solubility kinetic
COC(c1ccccc1)c1nnc(CCC(=O)NC2CCCCC2)o1 (stereo not given) | > 51.5 µg/mL
CC(OC(=O)c1cccn1C)C(=O)Nc1ccc2c(c1)OCO2 (stereo not given) | 22.5 µg/mL (≈ 71.1 µM)
Cc1cc(C(=O)NCc2cccc(Cl)c2)c2ccccc2n1 | 5.3 µg/mL (≈ 17.1 µM)
O=C(Nc1ccc(N2CCOCC2)cc1)c1cccc2ccccc12 | 2.7 µg/mL (≈ 8.12 µM)
Cc1cc(=O)n(Cc2ccc(OC(C)C)cc2)c(=S)[nH]1 | 13.8 µg/mL (≈ 47.5 µM)
COc1ccccc1NC(=O)N1C[C@@H]2C[C@@H](C1)c1cccc(=O)n1C2 | > 50.9 µg/mL
CC(C)N(Cc1ccccc1)C(=S)NC1CCCCC1 | 13.1 µg/mL (≈ 45.1 µM)
O=C(O)CC(CC(=O)Nc1ccc(Oc2ccccc2)cc1)c1ccccc1 (stereo not given) | > 56.3 µg/mL
O=C(c1ccccc1)C(O)C(c1ccccc1)N1CCOCC1 (stereo not given) | > 46.7 µg/mL
COc1cc(CC(=O)OCC(=O)N(C)C2CCCCC2)cc(OC)c1OC | 52.4 µg/mL (≈ 138 µM)
O=C(Nc1ccccc1Cl)c1ccc2ccccc2c1 | < 0.6 µg/mL
COCCN1CN=C(NS(=O)(=O)c2ccc(C)cc2)NC1 | > 46.9 µg/mL
Cc1ccc(NC(=O)CCOc2ccccc2C)cc1C | 1.7 µg/mL (≈ 6 µM)
c1ccc2nc(-c3ccc(-n4ccnc4)cc3)ccc2c1 | 6.2 µg/mL (≈ 22.9 µM)
O=C1Nc2ccccc2O/C1=C\c1c(F)cccc1Cl | 0.7 µg/mL (≈ 2.42 µM)
Cc1ccc(C)c(N2CCN(c3ccc([N+](=O)[O-])cn3)CC2)c1 | < 0.2 µg/mL
Cc1ccc2c(C(=O)CN3CCC(C(N)=O)CC3)c(C)[nH]c2c1 | > 47 µg/mL
COc1ccc(OC)c(-c2cc(C(=O)Nc3ccccc3C(N)=O)c3ccccc3n2)c1 | 5.9 µg/mL (≈ 13.8 µM)
O=C(COC(=O)/C=C/c1ccccc1)NCc1cccs1 | 17.7 µg/mL (≈ 58.7 µM)
O=C(COC(=O)c1ccccc1)NC1CCCC1 | > 37.1 µg/mL
Cc1csc(NC(=O)c2ccc(COc3ccccc3)o2)n1 | 3.3 µg/mL (≈ 10.5 µM)
N#Cc1c(-c2ccccc2)cc(-c2ccccc2)nc1SCC(=O)O | > 52 µg/mL

Structure (SMILES) | solubility kinetic
COc1ccc(-c2nc3ccccc3c(=O)[nH]2)cc1 | 2.2 µg/mL (≈ 8.72 µM)
Nc1nc(SCc2ccccc2)c2[nH]cnc2n1 | 38.4 µg/mL (≈ 149 µM)
CCn1c(=O)c(C(=O)NCc2ccccc2OC)c(O)c2ccccc21 | 0.7 µg/mL (≈ 1.99 µM)
O=c1[nH]cc(S(=O)(=O)Nc2ccc3c(c2)OCO3)c(=O)[nH]1 | > 46.7 µg/mL
N#CCCN(C(=O)CSc1nc2ccccc2c(=O)[nH]1)c1ccc(F)cc1 | > 57.4 µg/mL
CCc1ccccc1NC(=O)C1CCCN(c2ncccn2)C1 (stereo not given) | 8.3 µg/mL (≈ 26.7 µM)
CSCCC1NC(=O)N(CC(=O)Nc2cc(C)on2)C1=O (stereo not given) | > 46.9 µg/mL
CCOC(=O)c1ccccc1NC(=O)COC(=O)C1CCCC1 | 3.1 µg/mL (≈ 9.71 µM)
O=c1[nH]c(=S)n(C2CC2)c(O)c1C=NCCc1ccccc1 | < 0.2 µg/mL
CCOC(=O)c1c(-c2ccc(C)cc2)csc1/N=C/N(C)C | > 47.5 µg/mL
COC(CNC(=O)CN1CCN(Cc2ccccc2F)C1=O)OC | > 50.9 µg/mL
CC(C)c1ccc(CNC(=O)CCc2ccccc2)cc1 | 31.2 µg/mL (≈ 111 µM)
O=C1CC(N2CCN(S(=O)(=O)c3ccccc3F)CC2)C(=O)N1c1ccc(F)cc1F (stereo not given) | > 68 µg/mL
O=C(O)c1cn(CCOc2ccccc2Cl)c2ccccc12 | > 47.4 µg/mL
O=[N+]([O-])c1cccc(S(=O)(=O)NCCc2cn3ccccc3n2)c1 | 48.5 µg/mL (≈ 140 µM)
CCCCCC(=O)OC(CN1CCCC1=O)C[NH+]1CCCCCC1.[Cl-] (stereo not given) | > 56.2 µg/mL
Cn1c(C(=O)Nc2ccc(Cl)cc2)cc2cc(Cl)ccc21 | < 0.3 µg/mL
COc1ccc(Nc2nc3c(C)cccn3c(=O)c2C=O)cc1 | < 0.2 µg/mL
CCc1nc(Nc2ccc(F)cc2)c2oc3ccccc3c2n1.Cl | 0.8 µg/mL
